Measured values as given in PubChem BioAssay (NCI).
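Five concentrations, 48 hours, 96-well plates. TGI: total growth inhibition.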

How the values were obtained:
Experiment in all cases: NCI tumour cell line growth inhibition, 48 h
LOX IMVI melanoma = test system: LOX IMVI melanoma
UACC-62 melanoma = test system: UACC-62 melanoma
EKVX NSCLC = test system: EKVX NSCLC
RXF 393 renal = test system: RXF 393 renal
KM12 colon = test system: KM12 colon
MALME-3M melanoma = test system: MALME-3M melanoma
SK-OV-3 ovarian = test system: SK-OV-3 ovarian
CAKI-1 renal = test system: CAKI-1 renal
HT29 colon = test system: HT29 colon
OVCAR-8 ovarian = test system: OVCAR-8 ovarian
K-562 leukemia = test system: K-562 leukemia
NCI-H226 lung = test system: NCI-H226 lung
OVCAR-3 ovarian = test system: OVCAR-3 ovarian
SW-620 colon = test system: SW-620 colon
UACC-257 melanoma = test system: UACC-257 melanoma
NCI-H460 lung = test system: NCI-H460 lung
HCC-2998 colon = test system: HCC-2998 colon
SNB-75 CNS = test system: SNB-75 CNS
SNB-19 CNS = test system: SNB-19 CNS
M14 melanoma = test system: M14 melanoma
TK-10 renal = test system: TK-10 renal
SF-268 CNS = test system: SF-268 CNS
HOP-62 NSCLC = test system: HOP-62 NSCLC
ACHN renal = test system: ACHN renal
SF-539 CNS = test system: SF-539 CNS
U251 CNS = test system: U251 CNS
786-0 renal = test system: 786-0 renal
HCT-15 colon = test system: HCT-15 colon
NCI-H23 lung = test system: NCI-H23 lung
A498 renal = test system: A498 renal
HL-60(TB) leukemia = test system: HL-60(TB) leukemia
A549 NSCLC = test system: A549 NSCLC
HCT-116 colon = test system: HCT-116 colon
CCRF-CEM leukemia = test system: CCRF-CEM leukemia
MOLT-4 leukemia = test system: MOLT-4 leukemia
SF-295 CNS = test system: SF-295 CNS
RPMI-8226 leukemia = test system: RPMI-8226 leukemia
DMS 114 small cell lung = test system: DMS 114 small cell lung
UO-31 renal = test system: UO-31 renal
SNB-78 CNS = test system: SNB-78 CNS
LXFL 529 NSCLC = test system: LXFL 529 NSCLC
XF 498 CNS = test system: XF 498 CNS
M19-MEL melanoma = test system: M19-MEL melanoma
SN12C renal = test system: SN12C renal
OVCAR-4 ovarian = test system: OVCAR-4 ovarian
HOP-18 NSCLC = test system: HOP-18 NSCLC
SK-MEL-28 melanoma = test system: SK-MEL-28 melanoma
NCI-H522 lung = test system: NCI-H522 lung
KM20L2 colon = test system: KM20L2 colon
HOP-92 NSCLC = test system: HOP-92 NSCLC
SK-MEL-2 melanoma = test system: SK-MEL-2 melanoma
DMS 273 small cell lung = test system: DMS 273 small cell lung
IGROV1 ovarian = test system: IGROV1 ovarian
SK-MEL-5 melanoma = test system: SK-MEL-5 melanoma
OVCAR-5 ovarian = test system: OVCAR-5 ovarian
COLO 205 colon = test system: COLO 205 colon
DLD-1 colon = test system: DLD-1 colon
RXF-631 renal = test system: RXF-631 renal
SR leukemia = test system: SR leukemia

Compound: Cc1nc2c(nc1C)C(=O)C1=C(C2=O)C2C=CC1CC2
- TGI (LOX IMVI melanoma): 6.14 µM
- TGI (UACC-62 melanoma): 12.3 µM
- TGI (EKVX NSCLC): 18.9 µM
- TGI (RXF 393 renal): 18.5 µM
- TGI (KM12 colon): 33.3 µM
- TGI (MALME-3M melanoma): 24.4 µM
- TGI (SK-OV-3 ovarian): > 96.3 µM
- TGI (CAKI-1 renal): 37.6 µM
- TGI (HT29 colon): 41.7 µM
- TGI (OVCAR-8 ovarian): 10.8 µM
- TGI (K-562 leukemia): 6.15 µM
- TGI (NCI-H226 lung): 30.8 µM
- TGI (OVCAR-3 ovarian): 17.3 µM
- TGI (SW-620 colon): 8.09 µM
- TGI (UACC-257 melanoma): 14.5 µM
- TGI (NCI-H460 lung): 39.8 µM
- TGI (HCC-2998 colon): > 62.1 µM
- TGI (SNB-75 CNS): 61.6 µM
- TGI (SNB-19 CNS): > 61.2 µM
- TGI (M14 melanoma): 27.3 µM
- TGI (TK-10 renal): > 55.9 µM
- TGI (SF-268 CNS): 12.3 µM
- TGI (HOP-62 NSCLC): 53.9 µM
- TGI (ACHN renal): 24.9 µM
- TGI (SF-539 CNS): 26.9 µM
- TGI (U251 CNS): 10.1 µM
- TGI (786-0 renal): 24.8 µM
- TGI (HCT-15 colon): 38.1 µM
- TGI (NCI-H23 lung): 19.6 µM
- TGI (A498 renal): 98.7 µM
- TGI (HL-60(TB) leukemia): 4.26 µM
- TGI (A549 NSCLC): 41.5 µM
- TGI (HCT-116 colon): 3.12 µM
- TGI (CCRF-CEM leukemia): 5.9 µM
- TGI (MOLT-4 leukemia): 5.38 µM
- TGI (SF-295 CNS): 25 µM
- TGI (RPMI-8226 leukemia): 7.35 µM
- TGI (DMS 114 small cell lung): 3.71 µM
- TGI (UO-31 renal): 26.1 µM
- TGI (SNB-78 CNS): 10.6 µM
- TGI (LXFL 529 NSCLC): 3.19 µM
- TGI (XF 498 CNS): 14.5 µM
- TGI (M19-MEL melanoma): 3.46 µM
- TGI (SN12C renal): 32.4 µM
- TGI (OVCAR-4 ovarian): 3.5 µM
- TGI (HOP-18 NSCLC): 30.2 µM
- TGI (SK-MEL-28 melanoma): 35.6 µM
- TGI (NCI-H522 lung): 5.91 µM
- TGI (KM20L2 colon): 52.8 µM
- TGI (HOP-92 NSCLC): 4.48 µM
- TGI (SK-MEL-2 melanoma): 29 µM
- TGI (DMS 273 small cell lung): 29.8 µM
- TGI (IGROV1 ovarian): 9.93 µM
- TGI (SK-MEL-5 melanoma): 4.82 µM
- TGI (OVCAR-5 ovarian): 36.9 µM
- TGI (COLO 205 colon): 29.8 µM
- TGI (DLD-1 colon): 21.6 µM
- TGI (RXF-631 renal): 13.9 µM

Compound: [O-][n+]1c2cc3c(cc2[n+]([O-])c2c(O)cccc21)CN(CCN1CCOCC1)C3
- TGI (UACC-62 melanoma): 74.7 µM
- TGI (EKVX NSCLC): 68 µM
- TGI (RXF 393 renal): 42.4 µM
- TGI (KM12 colon): 31.8 µM
- TGI (MALME-3M melanoma): > 100 µM
- TGI (SK-OV-3 ovarian): 58.9 µM
- TGI (CAKI-1 renal): > 100 µM
- TGI (HT29 colon): 50.2 µM
- TGI (OVCAR-8 ovarian): 32.5 µM
- TGI (K-562 leukemia): 54.2 µM
- TGI (NCI-H226 lung): > 100 µM
- TGI (OVCAR-3 ovarian): 50.8 µM
- TGI (UACC-257 melanoma): 87.2 µM
- TGI (NCI-H460 lung): 28.1 µM
- TGI (SNB-75 CNS): > 100 µM
- TGI (SNB-19 CNS): > 100 µM
- TGI (M14 melanoma): > 100 µM
- TGI (TK-10 renal): > 100 µM
- TGI (SF-268 CNS): 60.6 µM
- TGI (ACHN renal): 66.9 µM
- TGI (U251 CNS): 28.7 µM
- TGI (786-0 renal): > 100 µM
- TGI (HCT-15 colon): > 100 µM
- TGI (NCI-H23 lung): 71 µM
- TGI (A498 renal): > 100 µM
- TGI (HL-60(TB) leukemia): 36.8 µM
- TGI (A549 NSCLC): > 100 µM
- TGI (HCT-116 colon): 33.2 µM
- TGI (CCRF-CEM leukemia): 47 µM
- TGI (MOLT-4 leukemia): 26.9 µM
- TGI (SF-295 CNS): 40 µM
- TGI (RPMI-8226 leukemia): 71.7 µM
- TGI (DMS 114 small cell lung): 25.4 µM
- TGI (UO-31 renal): 40.9 µM
- TGI (SNB-78 CNS): > 100 µM
- TGI (LXFL 529 NSCLC): 62.1 µM
- TGI (XF 498 CNS): 33.5 µM
- TGI (M19-MEL melanoma): 49 µM
- TGI (SN12C renal): > 100 µM
- TGI (OVCAR-4 ovarian): > 100 µM
- TGI (HOP-18 NSCLC): > 100 µM
- TGI (SK-MEL-28 melanoma): > 100 µM
- TGI (NCI-H522 lung): 19 µM
- TGI (SR leukemia): 7.83 µM
- TGI (KM20L2 colon): > 100 µM
- TGI (HOP-92 NSCLC): 32.3 µM
- TGI (SK-MEL-2 melanoma): 53 µM
- TGI (DMS 273 small cell lung): > 100 µM
- TGI (IGROV1 ovarian): 39.5 µM
- TGI (SK-MEL-5 melanoma): > 100 µM
- TGI (OVCAR-5 ovarian): > 100 µM
- TGI (COLO 205 colon): 30.5 µM
- TGI (RXF-631 renal): > 100 µM

Compound: COc1cc(Nc2cnc3ccc(N)cc3n2)cc(OC)c1OC
- TGI (LOX IMVI melanoma): > 82.8 µM
- TGI (UACC-62 melanoma): > 100 µM
- TGI (EKVX NSCLC): > 100 µM
- TGI (RXF 393 renal): 98.5 µM
- TGI (KM12 colon): > 100 µM
- TGI (MALME-3M melanoma): > 100 µM
- TGI (SK-OV-3 ovarian): > 100 µM
- TGI (CAKI-1 renal): > 100 µM
- TGI (HT29 colon): > 100 µM
- TGI (OVCAR-8 ovarian): > 100 µM
- TGI (K-562 leukemia): > 56.6 µM
- TGI (NCI-H226 lung): > 100 µM
- TGI (OVCAR-3 ovarian): > 86.6 µM
- TGI (SW-620 colon): > 100 µM
- TGI (UACC-257 melanoma): > 100 µM
- TGI (NCI-H460 lung): > 100 µM
- TGI (HCC-2998 colon): > 100 µM
- TGI (SNB-75 CNS): > 100 µM
- TGI (SNB-19 CNS): > 100 µM
- TGI (M14 melanoma): > 100 µM
- TGI (TK-10 renal): > 100 µM
- TGI (SF-268 CNS): > 100 µM
- TGI (HOP-62 NSCLC): 71.1 µM
- TGI (ACHN renal): > 100 µM
- TGI (U251 CNS): > 100 µM
- TGI (786-0 renal): > 100 µM
- TGI (HCT-15 colon): > 100 µM
- TGI (NCI-H23 lung): > 100 µM
- TGI (A498 renal): > 100 µM
- TGI (HL-60(TB) leukemia): > 52.1 µM
- TGI (A549 NSCLC): > 100 µM
- TGI (HCT-116 colon): > 100 µM
- TGI (CCRF-CEM leukemia): > 56.6 µM
- TGI (MOLT-4 leukemia): > 100 µM
- TGI (SF-295 CNS): > 100 µM
- TGI (RPMI-8226 leukemia): 42.2 µM
- TGI (DMS 114 small cell lung): > 100 µM
- TGI (UO-31 renal): > 100 µM
- TGI (SNB-78 CNS): > 100 µM
- TGI (LXFL 529 NSCLC): > 100 µM
- TGI (XF 498 CNS): > 100 µM
- TGI (M19-MEL melanoma): > 100 µM
- TGI (SN12C renal): > 100 µM
- TGI (OVCAR-4 ovarian): > 100 µM
- TGI (HOP-18 NSCLC): > 100 µM
- TGI (SK-MEL-28 melanoma): > 100 µM
- TGI (NCI-H522 lung): > 100 µM
- TGI (KM20L2 colon): > 100 µM
- TGI (HOP-92 NSCLC): > 100 µM
- TGI (SK-MEL-2 melanoma): > 100 µM
- TGI (DMS 273 small cell lung): > 100 µM
- TGI (IGROV1 ovarian): > 100 µM
- TGI (SK-MEL-5 melanoma): > 100 µM
- TGI (OVCAR-5 ovarian): > 100 µM
- TGI (COLO 205 colon): > 100 µM
- TGI (DLD-1 colon): > 33.6 µM
- TGI (RXF-631 renal): > 100 µM
